Test results taken from US10730892B2, “Homoallylamines as formaldehyde-responsive triggers” (The Regents of the University of California, priority 2015, dated 2020).
Read-outs that look alike come from different tables or passages of the source.

Experiments:
MCF7 cells = experiment: Confocal microscopy of FAP-1 in LSD1 inhibitor-treated MCF7 cells (endogenous FA); format: cell-based, human; conditions: 10 μM FAP-1 60 min
Excerpt: Scale bar represents 50 μm in all images. […] Scale bar represents 50 μm in all images. […] Error bars denote SEM, n=6. *P<0.005

[1] = in 1% pyridine/toluene; cited from earlier work
HEK293TN cells = conditions: 3 hrs
Description: Prior to imaging, cells were allowed to recover in FA-free buffer for 30 min. […] Because FA is a powerful fixative, cell viability assays were performed to determine the cytotoxicity of FA under experimental conditions. A dye exclusion protocol was employed, utilizing trypan blue to selectively stain and distinguish dead cells from those that were viable. […] To further verify that the cell populations under investigation were indeed alive, DAPI, a cell permeable nuclear and chromosome counterstain, was employed to identify intact nuclei (FIG. 16).

HEK293T cells [2] = conditions: FA in BSS, 37° C., 30 min
[3] = Fluorescence properties of compounds 3, 4, 5 and FP1 (Table 1); format: physicochemical
Excerpt: Such red-shifted fluorophores are desirable because of low autofluorescence, minimal phototoxicity, and negligible interference from biomolecules when employed in live cell imaging. […] In the presence of FA, a reversible condensation event yielded an iminium intermediate which can undergo a charge-promoted [3,3]-sigmatropic rearrangement-hydrolysis sequence to expel the aryl nitro group and afford a highly fluorescent indole-3-carboxaldehyde product (ΦF=0.11) (Table 1). Of note, the aldehyde is strategically positioned at C3 such that after the reaction cascade, the N1 lone pair electrons can delocalize into the π-system rather than quench fluorescence via an acceptor-excited PeT (a-PeT) pathway. In this regard, silicon rhodol 3, without the carboxaldehyde, is non-fluorescent (Table 1).

[4] = pH-Fluorescence profile of compound 4; format: physicochemical; conditions: pH 2.0 to 10.4, 25° C.
Description: FIG. 7 depicts the pH-Fluorescence profile of compound 4 (as denoted in FIG. 3). Fluorescence intensity was measured at 25° C. for the following pH values and indicated buffers: 50 mM Glycine (2.0, 2.4, 2.7, 3.1, 3.5), 50 mM sodium acetate (4.0, 4.4, 4.8, 5.2, 5.6), 50 mM MES (5.6, 6.0, 6.4, 6.8), 50 mM HEPES (6.8, 7.2, 7.4, 7.8, 8.2), 50 mM Tris (8.2, 8.6, 9.0, 9.5) and 50 mM glycine (9.5, 9.9, 10.4).

[5] = Description: Milli-Q water was used to prepare all aqueous solutions. All spectroscopic measurements were performed in 20 mM PBS, pH 7.4. Absorption spectra were recorded using a Varian Cary 50 spectrophotometer, and fluorescence spectra were recorded using a Photon Technology International Quanta Master 4 L-format scan spectrofluorometer equipped with an LPS-220B 75-W xenon lamp and power supply, A-1010B lamp housing with integrated igniter, switchable 814 photocounting/analog photomultiplier detection unit, and MD5020 motor driver. Samples for absorption and emission measurements were contained in 1-cm×1-cm quartz cuvettes (1.4-mL volume, Starna).
Quantum yield was determined using zinc phthalocyanine (ZnPc) as a standard according to a published method (Williams et al., Analyst. 1983, 108:1067-1071). For FAP-1 and ZnPc, the absorbance spectra were measured within an absorbance range below 0.1. The quantum yield was calculated according to the equation: ϕsample=ϕstandard (Gradsample/Gradstandard)(ηsample^2/ηstandard^2); where ϕ is the quantum yield, ϕstandard=0.34 in 1% pyridine/toluene (Bishop et al., J. Photochem. Photobiol. 1995, 90:39-44), Grad is the slope of the plot of absorbance versus integrated emission intensity, and η is the refractive index of the solvent.

HEK293T cells [6] = conditions: 10 μM FAP-1 30 min, FA 200 μM to 1 mM
Description: Statistical analyses for multiple comparisons were performed using one-way ANOVA with the Bonferroni correction in the statistical analysis software, R.

[7] = remark: listed apart in the source
Description: 999 μL of a 10.01 μM solution of FAP-1 in 20 mM PBS (pH 7.4) was prepared by diluting a 10 mM dimethylsulfoxide (DMSO) stock solution of FAP-1 into pre-warmed PBS (37° C.) in a 1-cm×1-cm quartz cuvette. 1 μL of 100 mM stock solution of FA (freshly prepared by diluting commercial 37 wt. % in H2O FA solution) was added (for a final concentration of 100 μM), and the mixture was mixed by vigorous pipetting for 5 s, followed by acquisition of the t=0 spectrum. Emission spectra (λex=645 nm, λem=655-750 nm) were collected at 0, 20, 45, 60, 90, and 120 min (see FIG. 24A). Temperature was maintained at 37° C. throughout the experiment by immersing the cuvette in a heated water bath between measurements.
999 μL of a 10.01 μM solution of FAP-1 in 20 mM PBS (pH 7.4) was prepared by diluting a 10 mM DMSO stock solution of FAP-1 into pre-warmed PBS (37° C.) in a 1-cm×1-cm quartz cuvette. 1 μL of a FA stock solution (either 5 mM or 1 mM, freshly prepared by diluting commercial 37 wt. % FA solution with Milli-Q water) or 1 μL of PBS was added (for a final concentration of 5 μM, 1 μM, or 0 μM FA), and the mixture was mixed by vigorous pipetting for 5 s and placed in a 37° C. water bath. Emission spectra were obtained after 120 min. Statistical analyses for multiple comparisons were performed using one-way ANOVA with the Bonferroni correction in the statistical analysis software, R.

[8] = remark: listed apart in the source
Description: A modified version of the shake method was used to determine the partition coefficient or log Doct/wat value for FAP-1 (Rothbard et al., J. Am. Chem. Soc. 2004, 126:9506-9507). Briefly, 1-octanol-saturated PBS (248 μL), PBS-saturated 1-octanol (248 μL), and 1 mM solution of FAP-1 in DMSO (5 μL) were added to a 0.6-mL microcentrifuge tube. The dye was partitioned between the layers via vortexing for 30 s. The microcentrifuge tube was centrifuged on a bench-top minifuge at 4 k rpm for 4 minutes to separate the layers. A portion of the 1-octanol layer (200 μL) was transferred to a 96-well plate, and the fluorescence emission from 665-700 nm was measured (excitation at 645 nm) using a Synergy Mx multimode microplate reader (BioTek Instruments, Inc.) equipped with fluorescence module. The concentration of dye in the 1-octanol layer was determined by comparison with a standard curve constructed from six data points.

[9] = remark: listed apart in the source
Description: (§1) 999 μL of a 10.01 μM solution of FAP-1 (for 4-hydroxynonenal cuvette: 998.4 μL of a 10.02 μM solution of FAP-1; for glutathione cuvette: 950 μL of a 10.53 μM solution of FAP-1) in 20 mM PBS (pH 7.4) was prepared by diluting a 10 mM DMSO stock solution of FAP-1 into pre-warmed PBS (37° C.) in a 1-cm×1-cm quartz cuvette. The analyte of interest was added to the cuvette to bring the concentration of analyte to 100 μM (unless otherwise specified) and the concentration of FAP-1 to 10 μM, followed by mixing by vigorous pipetting for 5 seconds, and a t=0 spectrum was acquired. The cuvette was placed in a 37° C. water bath. Emission spectra were recorded by quickly removing the cuvette from the water bath, obtaining the spectrum, and returning the cuvette to the bath. Spectra were taken at t=0, 20, 45, 60, 90, and 120 min (see FIG. 24B).
1 μL of 100 mM stock solution of methylglyoxal in Milli-Q water (freshly prepared by diluting 7.7 μL of neat methylglyoxal to 500 μL with Milli-Q water) was added to 999 μL of a 10.01 μM solution of FAP-1 in PBS.

HEK293T cells [10] = tested on: HEK293T cells
Description: FIG. 29 depicts a photostability study with FAP-1. A field of HEK293T cells loaded with 10 μM FAP-1 in BSS at 37° C. was irradiated using 50% laser power (dashed line) or 6% laser power (solid line) with a pinhole of 1 airy unit for 100 scans. Emission was normalized to the first scan for each field. Error bars represent standard deviation, n=5.

[11] = remark: listed apart in the source
Description: as §1

N[C@@H]1C[C@H]1c1ccccc1 (racemic) [TCP, tranylcypromine]
decrease in FAP-1 fluorescence signal compared to control cells (MCF7 cells; MCF7, 20 μM inhibitor for 20 h): ca. 20%

c1ccc([C@@H]2C[C@H]2NC2CCNCC2)cc1 [GSK-LSD1]
effect on FAP-1 fluorescence (MCF7 cells; MCF7, 1 μM inhibitor for 20 h): attenuated FAP-1 fluorescence

[Zn+2].c1ccc2c(c1)-c1nc-2nc2[n-]c(nc3nc([n-]c4nc(n1)-c1ccccc1-4)-c1ccccc1-3)c1ccccc21 [ZnPc, zinc phthalocyanine]
ϕstandard (quantum yield) [1]: 0.34

C=O [FA, Formaldehyde]
dead cells (trypan blue) (HEK293TN cells; 1 mM FA): 5% | cells no longer viable (trypan blue) (HEK293TN cells; 5 mM FA): ~35% | cell viability (propidium iodide assay) (HEK293T cells [2]): no difference between FA-treated and untreated cells | loss in viability (trypan blue) (NS1 cells; NS1, 2.5 mM FA, 3 hrs): ca. 12% | cell death (trypan blue) (NS1 cells; NS1, 5 mM FA): considerable cell death

Cc1cc2c(ccn2C)cc1C1=C2C=CC(=O)C=C2[Si](C)(C)c2c1cc1c3c2CCCN3CCC1 [Compound 3, 9-(1,6-dimethyl-1H-indol-5-yl)-14,14-dimethyl-2,3,5,6,7,14-hexahydro-1H,12H-benzo[5,6]silino[2,3-f]pyrido[3,2,1-ij]quinolin-12-one]
ε [3]: 86000 M⁻¹ cm⁻¹ | λabs [3]: 633 nm | λem [3]: 649 nm | fluorescence (in words) ([3]; without the carboxaldehyde): non-fluorescent

Cc1cc2c(cc1C1=C3C=CC(=O)C=C3[Si](C)(C)c3c1cc1c4c3CCCN4CCC1)c(C=O)cn2C [Compound 4, 5-(14,14-dimethyl-12-oxo-2,3,6,7,12,14-hexahydro-1H,5H-benzo [5,6]silino [2,3-f]pyrido[3,2,1-ij]quinolin-9-yl)-1,6-dimethyl-1H-indole-3-carbaldehyde]
Φ (quantum efficiency, ΦF) [3]: 0.13 | ε [3]: 106000 M⁻¹ cm⁻¹ | λabs [3]: 633 nm | λem [3]: 649 nm | Φ (quantum efficiency, ΦF) ([3]; listed as indole-3-carboxaldehyde product): 0.11 | pH-fluorescence profile [4]: high fluorescence intensity was maintained under physiological conditions

C=CCC1NC2(c3ccc(C(=O)O)cc31)c1ccc(N(C)C)cc1[Si](C)(C)c1cc(N(C)C)ccc12 (stereo not drawn) [FAP-1]
ε650 ([5]; 20 mM PBS, pH 7.4): 190 M^1 cm^−1 | φfl (quantum yield) ([5]; 20 mM PBS, pH 7.4, ZnPc as standard): 0.36 | λem ([5]; turn-on response to FA): 662 nm | λmax ([5]; turn-on response to FA): 645 nm | fluorescence turn-on in FA-treated cells over control cells (HEK293T cells [6]): significant and dose-dependent fluorescence turn-on | turn-on response at saturation ([7]; 10 μM FAP-1, 100 μM FA, extended incubation times): ca. 45 fold | fold fluorescence turn-on response ([7]; 10 μM FAP-1, 100 μM FA, pH 7.4, 37° C., within 1 h): ca. 8 fold | in vitro detection limit for FA ([7]; 10 μM FAP-1, 2-hour cutoff): 5 µM | log Doct/wat ([8]; 1-octanol / PBS, mean±standard deviation, triplicate): 0.53±0.01 | solubility in aqueous solution ([8]; aqueous solution buffered to pH 7.4): good solubility | fluorescence response ([9]; 10 μM methylglyoxal): not responsive | fluorescence response ([9]; 100 μM methylglyoxal (super-physiological)): small response | photostability (HEK293T cells [10]; 50% laser power): slight photobleaching | photostability (HEK293T cells [10]; 100 scans with 6% laser power): consistent fluorescence intensity | selectivity for FA over competing RCS and carbonyl-containing molecules ([11]; 10 μM FAP-1, 100 μM analyte (glucose 1 mM), 37° C.): good selectivity | change in fluorescence ([11]; 100 μM H2O2): no change in fluorescence | change in fluorescence ([11]; 5 mM glutathione): no change in fluorescence

C=CCC(N)c1cn(C)c2cc(C)c(C3=C4C=CC(=O)C=C4[Si](C)(C)c4c3cc3c5c4CCCN5CCC3)cc12 (stereo not drawn) [Compound 5, 9-(3-(1-aminobut-3-en-1-yl)-1,6-dimethyl-1H-indol-5-yl)-14,14-dimethyl-2,3,5,6,7,14-hexahydro-1H,12H-benzo[5,6]silino[2,3-f]pyrido[3,2,1-ij]quinolin-12-one]
Φ (quantum efficiency, ΦF) [3]: 0.02 | ε [3]: 100000 M⁻¹ cm⁻¹ | λabs [3]: 633 nm | λem [3]: 649 nm
